Where two headings read alike, the source gives them in different places. Non-standard residues stand in square brackets, D forms with d. Residues, ends and D or L forms follow the SMILES beside them. Tyr(3,5-I2) = N[C@@H](Cc1cc(I)c(O)c(I)c1)C(=O)O; Oic = O=C(O)[C@@H]1C[C@@H]2CCCC[C@@H]2N1; 2Nal = N[C@@H](Cc1ccc2ccccc2c1)C(=O)O; d2Nal = N[C@H](Cc1ccc2ccccc2c1)C(=O)O; Hyp = O=C(O)[C@@H]1C[C@@H](O)CN1; Tic = O=C(O)[C@@H]1Cc2ccccc2CN1; dTic = O=C(O)[C@H]1Cc2ccccc2CN1; 2Thi = N[C@@H](Cc1cccs1)C(=O)O; Ahx = NCCCCCC(=O)O; Sar = CNCC(=O)O
What was measured:
B2 receptor = molecular target: T1, B2 receptor (Oryctolagus cuniculus, UniProt Q28642); details: vs BK; captopril 1 μmol/L; Inactive = no detectable antagonistic effect at ≦ 10 μg/ml
T1 sequence (Q28642 1-367): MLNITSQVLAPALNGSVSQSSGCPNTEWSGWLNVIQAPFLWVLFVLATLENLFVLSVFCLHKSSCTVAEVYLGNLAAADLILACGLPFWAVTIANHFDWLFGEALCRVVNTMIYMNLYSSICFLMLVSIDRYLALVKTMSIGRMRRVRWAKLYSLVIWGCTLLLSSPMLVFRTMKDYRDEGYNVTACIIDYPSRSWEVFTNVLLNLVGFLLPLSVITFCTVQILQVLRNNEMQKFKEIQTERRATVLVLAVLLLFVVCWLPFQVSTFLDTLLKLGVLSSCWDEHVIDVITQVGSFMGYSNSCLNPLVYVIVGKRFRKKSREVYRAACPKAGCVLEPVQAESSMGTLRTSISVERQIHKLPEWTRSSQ

human B1 receptor = molecular target: T2, human B1 receptor (Homo sapiens, UniProt P46663); assay: cell-based; details: for Human umbilical vein B1 receptor α^E: residual agonistic activity at 10 μg/mL
T2 sequence (P46663 1-353): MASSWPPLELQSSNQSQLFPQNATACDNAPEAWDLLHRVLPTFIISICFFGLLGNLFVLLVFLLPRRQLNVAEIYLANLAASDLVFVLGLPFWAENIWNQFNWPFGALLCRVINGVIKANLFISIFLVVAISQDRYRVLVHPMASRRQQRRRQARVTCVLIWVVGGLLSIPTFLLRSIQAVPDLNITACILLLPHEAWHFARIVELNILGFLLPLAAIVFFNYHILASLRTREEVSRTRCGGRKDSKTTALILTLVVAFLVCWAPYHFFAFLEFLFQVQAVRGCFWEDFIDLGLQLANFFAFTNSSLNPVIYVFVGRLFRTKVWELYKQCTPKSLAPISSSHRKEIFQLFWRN
How it was run: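 Isolated rabbit jugular vein (captopril 1 μmol/L), guinea pig ileum, endothelium-free rabbit aorta and human umbilical vein, in Krebs at 37 °C, with isometric tension recorded. Agonism was tested at 10 μg/mL.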

[1] = Human umbilical vein B1 receptor pA2, vs desArg9BK, HOE140 400 nmol/L present

| Structure (SMILES) | Kb (human B1 receptor; [1]) [nM] | further results |
| --- | --- | --- |
| CC(C)C[C@H](NC(=O)[C@H]1Cc2ccccc2CN1C(=O)[C@H](CO)NC(=O)[C@H](Cc1ccccc1)NC(=O)CNC(=O)[C@@H]1CCCN1C(=O)[C@@H]1CCCN1C(=O)[C@@H](N)CCCNC(=N)N)C(=O)O [Compound 8, (D-Tic^7, Leu^8)desArg^9BK] (H-RPPGFS[dTic]L-OH; N-terminus and C-terminus assumed) | 2750 | Rb.J.V. pA2 (B2 receptor): Inactive |
| CNCC(=O)N[C@@H](CCCNC(=N)N)C(=O)N1CCC[C@H]1C(=O)N1CCC[C@H]1C(=O)NCC(=O)N[C@@H](Cc1ccccc1)C(=O)N[C@@H](CO)C(=O)N1Cc2ccccc2C[C@@H]1C(=O)N[C@@H](CC(C)C)C(=O)O [Compound 9, Sar(D-Tic^7, Leu^8)desArg^9BK] (H-[Sar]RPPGFS[dTic]L-OH; N-terminus and C-terminus assumed) | – | Rb.J.V. pA2 (B2 receptor): Inactive |
| CC[C@H](C)[C@H](NC(=O)[C@H]1Cc2ccccc2CN1C(=O)[C@H](CO)NC(=O)[C@H](Cc1ccccc1)NC(=O)CNC(=O)[C@@H]1CCCN1C(=O)[C@@H]1CCCN1C(=O)[C@H](CCCNC(=N)N)NC(=O)[C@H](N)CCCNC(=N)N)C(=O)O [Compound 13, D-Arg(D-Tic^7, Ile^8)desArg^9BK] (H-[dR]RPPGFS[dTic]I-OH; N-terminus and C-terminus assumed) | 22.9 | – |
| CC[C@H](C)[C@H](NC(=O)[C@@H]1Cc2ccccc2CN1C(=O)[C@H](CO)NC(=O)[C@H](Cc1ccccc1)NC(=O)CNC(=O)[C@@H]1CCCN1C(=O)[C@@H]1CCCN1C(=O)[C@H](CCCNC(=N)N)NC(=O)[C@H](N)CCCNC(=N)N)C(=O)O [Compound 14, D-Arg(L-Tic^7, Ile^8)desArg^9BK] (H-[dR]RPPGFS[Tic]I-OH; N-terminus and C-terminus assumed) | 4680 | – |
| CC(=O)N[C@@H](CCCCN)C(=O)N[C@@H](CCCNC(=N)N)C(=O)N1CCC[C@H]1C(=O)N1CCC[C@H]1C(=O)NCC(=O)N[C@@H](Cc1ccccc1)C(=O)N[C@@H](CO)C(=O)N[C@H](Cc1ccc2ccccc2c1)C(=O)N[C@@H](CC(C)C)C(=O)O [Compound 18, AcLys(D-βNal^7, Leu^8)desArg^9BK] (Ac-KRPPGFS[d2Nal]L-OH; C-terminus assumed) | 35.5 | Human umbilical vein B1 receptor α^E (human B1 receptor): 0 |
| CC[C@H](C)[C@H](NC(=O)[C@@H](Cc1ccc2ccccc2c1)NC(=O)[C@H](CO)NC(=O)[C@H](Cc1ccccc1)NC(=O)CNC(=O)[C@@H]1CCCN1C(=O)[C@@H]1CCCN1C(=O)[C@H](CCCN=C(N)N)NC(=O)[C@H](CCCCN)NC(C)=O)C(=O)O [Compound 19, AcLys(D-βNal^7, Ile^8)desArg^9BK] (Ac-KRPPGFS[d2Nal]I-OH) | – | Kb (human B1 receptor): 3.16 nM |
| CC[C@H](C)[C@H](NC(=O)[C@H](Cc1ccc2ccccc2c1)NC(=O)[C@H](CO)NC(=O)[C@H](Cc1ccccc1)NC(=O)CNC(=O)[C@@H]1CCCN1C(=O)[C@@H]1CCCN1C(=O)[C@H](CCCNC(=N)N)NC(=O)[C@H](CCCCN)NC(C)=O)C(=O)O [Compound 20, AcLys(L-βNal^7, Ile^8)desArg^9BK] (Ac-KRPPGFS[2Nal]I-OH; C-terminus assumed) | 6920 | Human umbilical vein B1 receptor α^E (human B1 receptor): 0 |
| CC(C)C[C@H](NC(=O)[C@@H](Cc1ccc2ccccc2c1)NC(=O)[C@H](CO)NC(=O)[C@H](Cc1ccccc1)NC(=O)CNC(=O)[C@@H]1CCCN1C(=O)[C@@H]1CCCN1C(=O)[C@H](CCCNC(=N)N)NC(=O)[C@H](N)CCCNC(=N)N)C(=O)O [Compound 24, D-Arg(D-βNal^7, Leu^8)desArg^9BK] (H-[dR]RPPGFS[d2Nal]L-OH; N-terminus and C-terminus assumed) | 50.1 | – |
| CC[C@H](C)[C@H](NC(=O)[C@@H](Cc1ccc2ccccc2c1)NC(=O)[C@H](CO)NC(=O)[C@H](Cc1ccccc1)NC(=O)CNC(=O)[C@@H]1CCCN1C(=O)[C@@H]1CCCN1C(=O)[C@H](CCCNC(=N)N)NC(=O)CNC)C(=O)O [Compound 26, Sar(D-βNal^7, Ile^8)desArg^9BK] (H-[Sar]RPPGFS[d2Nal]I-OH; N-terminus and C-terminus assumed) | 47.9 | – |
| CC(=O)N[C@@H](Cc1ccc(O)cc1)C(=O)NCCCCCC(=O)N[C@@H](CCCCN)C(=O)N[C@@H](CCCNC(=N)N)C(=O)N1CCC[C@H]1C(=O)N1CCC[C@H]1C(=O)NCC(=O)N[C@@H](Cc1ccccc1)C(=O)N[C@@H](CO)C(=O)N1CCC[C@H]1C(=O)N[C@@H](CC(C)C)C(=O)O [Compound 27, AcTyrεAhxLys(Leu^8)desArg^9BK] | – | Rb.J.V. pA2 (B2 receptor): Inactive |
| CNCC(=O)N[C@@H](Cc1ccc(O)cc1)C(=O)NCCCCCC(=O)N[C@@H](CCCCN)C(=O)N[C@@H](CCCNC(=N)N)C(=O)N1CCC[C@H]1C(=O)N1CCC[C@H]1C(=O)NCC(=O)N[C@@H](Cc1ccccc1)C(=O)N[C@@H](CO)C(=O)N1CCC[C@H]1C(=O)N[C@@H](CC(C)C)C(=O)O [Compound 28, SarTyrεAhxLys(Leu^8)desArg^9BK] | – | Rb.J.V. pA2 (B2 receptor): Inactive |
| CC[C@H](C)[C@H](NC(=O)[C@@H](Cc1ccc2ccccc2c1)NC(=O)[C@H](CO)NC(=O)[C@H](Cc1ccccc1)NC(=O)CNC(=O)[C@@H]1CCCN1C(=O)[C@@H]1CCCN1C(=O)[C@H](CCCNC(=N)N)NC(=O)[C@H](CCCCN)NC(=O)CCCCCNC(=O)[C@H](Cc1ccc(O)cc1)NC(=O)CNC)C(=O)O [Compound 29, SarTyrεAhxLys(D-βNal^7, Ile^8)desArg^9BK] (H-[Sar]Y[Ahx]KRPPGFS[d2Nal]I-OH; N-terminus and C-terminus assumed) | 4.07 | – |
| CC[C@H](C)[C@H](NC(=O)[C@@H](Cc1ccc2ccccc2c1)NC(=O)[C@H](CO)NC(=O)[C@H](Cc1ccccc1)NC(=O)CNC(=O)[C@@H]1CCCN1C(=O)[C@@H]1CCCN1C(=O)[C@H](CCCNC(=N)N)NC(=O)[C@H](CCCCN)NC(=O)CCCCCNC(=O)[C@H](Cc1cc(I)c(O)c(I)c1)NC(=O)CNC)C(=O)O [Compound 30, SarTyr(3,5-I)εAhxLys(D-βNal^7, Ile^8)desArg^9BK] (H-[Sar][Tyr(3,5-I2)][Ahx]KRPPGFS[d2Nal]I-OH; N-terminus and C-terminus assumed) | 4.79 | – |
| N=C(N)NCCC[C@@H](N)C(=O)N[C@@H](CCCNC(=N)N)C(=O)N1CCC[C@H]1C(=O)N1C[C@H](O)C[C@H]1C(=O)NCC(=O)N[C@@H](Cc1cccs1)C(=O)N[C@@H](CO)C(=O)N1Cc2ccccc2C[C@@H]1C(=O)N1[C@H](C(=O)O)C[C@@H]2CCCC[C@@H]21 [Compound 31, D-Arg(Hyp^3, Thi^5, D-Tic^7, Oic^8)desArg^9BK, reference compound] (H-[dR]RP[Hyp]G[2Thi]S[dTic][Oic]-OH; N-terminus and C-terminus assumed) | 51.3 | Human umbilical vein B1 receptor pA2 (human B1 receptor; vs desArg9BK, HOE140 400 nmol/L present): 7.29 |
